Active and inactive are the calls of the source. No cut-off for these calls is given here. Where a SMILES comes first, the peptide text is derived from it.
How the values were obtained:
[1] = system: Candida albicans; assay: Binding affinity to Candida albicans MYA-2876 membrane at 2 mg/ml incubated for 15 mins on ice followed by 45 mins in room temperature by fluorescence microscopic analysis; format: functional
[2] = system: Candida albicans; assay: Binding affinity to Candida albicans ATCC 90028 membrane at 2 mg/ml incubated for 15 mins on ice followed by 45 mins in room temperature by fluorescence microscopic analysis; format: functional

N=C(N)NCCC[C@@H]1NC(=O)[C@H](CCCNC(=N)N)NC(=O)[C@H](Cc2c[nH]c3ccccc23)NC(=O)[C@H](Cc2c[nH]c3ccccc23)NC(=O)[C@H](CCCNC(=N)N)NC(=O)[C@H](Cc2ccccc2)NC(=O)[C@H](Cc2c[nH]cn2)NC1=O (cyclo(FRWWRRH))
Activity [1]: Active
Activity [2]: Active

— ChEMBL document CHEMBL2163265, “Antifungal peptides at membrane interaction” (Eur J Med Chem, 2012)
